Measured values taken from patent US20210382058A1, “PATIENT SELECTION FOR TREATMENT OF MYC POSITIVE CANCERS WITH INDENOISOQUINOLINES” (Purdue Research Foundation, priority 2020, published 2021).

Key:
MycG4 (MycPu22 DNA) = test: 1H NMR titration of MycPu22 DNA; type: binding, human; conditions: 150 μM DNA, 25° C., pH 7, 100 mM K+
Text: The binding interactions of six selected indenoisoquinolines with MycG4 were examined using ^1H NMR titration experiments in K^+-containing solution. […] The binding appeared to be in the medium-to-fast exchange rate on the NMR time-scale, as shown by the broadening of DNA proton peaks at lower drug equivalence (0.5 and 1) and the sharpening at higher drug equivalence (2 and 3). […] The MycG4 complexes of the five MycG4-interactive indenoisoquinolines were monomeric in nature as shown by native EMSA gels (FIG. 13).
All NMR experiments were conducted using a Bruker AV-500 spectrometer equipped with a Prodigy cryoprobe at 25° C. Watergate water suppression technique was used to suppress water signals. Briefly, each DNA sample was prepared to a final concentration of […] in 75 mM KCl, 25 mM phosphate buffer at pH 7.0, and containing 90/10% H2O/D2O. DNA samples were heated to 95° C. for 5 min then cooled slowly to room temperature for G4 formation. ^1H-NMR titrations were performed by adding increasing amounts of the compound (0.5 to 4 equivalents) to the oligonucleotide solution.

MycPu22 = test: Competition fluorescence displacement, competitor MycPu22; design: species or system human; conditions: competitor binding affinity; 20 nM 3′-TAMRA MycPu22, 20 nM compound, 20° C., pH 7, 100 mM K+
Method: (§1) Using a competition fluorescence displacement assay, the binding selectivity of five indenoisoquinolines for MycG4 was determined as compared to a parallel K-Ras promoter G4, a hybrid telomeric G4, and double-stranded (ds) DNA at 1 and 5 equivalents of each compound (FIGS. 7 and 16A-16C). The 3′-TAMRA labeled MycPu22 DNA was used as the fluorescence probe, whose fluorescence was quenched upon the binding of indenoisoquinolines. Upon addition of unlabeled, non-fluorescent competitors (e.g. other DNA G4s and dsDNA), the TAMRA-labeled MycPu22 DNA is displaced by the competitor DNA for indenoisoquinoline binding and the initial high TAMRA-fluorescence is restored. The competition fluorescence displacement assay allows for a straightforward assessment of selective binding towards MycG4 vs. the competitors, i.e. MycG4s (parallel), K-Ras G4 (parallel), telomeric G4 (hybrid), and dsDNA. One and five compound equivalents were used to assess the selectivity of the strongest binding site and other binding sites of each indenoisoquinoline. […] As shown in the modeling study, the substituents on the A- and D-rings of indenoisoquinolines likely contribute to binding MycG4 by more optimal stacking interactions with the external G-tetrads. On the other hand, the increased size of the indenoisoquinoline ring system may hinder intercalation in dsDNA due to possible steric collision with the DNA backbone. […] 6-Substituted indenoisoquinolines were previously reported to bind to the c-Kit promoter G4s which were also primarily parallel.^17
(§2) The competition fluorescence displacement experiments were performed on a Jasco FP-8300 Spectrofluorometer equipped with a temperature controller at 20° C. The stock solution containing 2 μM 3′-TAMRA-labelled MycPu22 oligonucleotide was diluted to 20 nM using 75 mM KCl, 25 mM phosphate buffer at pH 7.0. To check the binding selectivity of each compound to MycG4 DNA, 20 nM or 100 nM of the indenoisoquinoline was added to the DNA solution in a total volume of 1.6 mL in a quartz cell with a 10 mm path length. Subsequently, various unlabeled MycG4s (MycPu22 and MycPu28), K-Ras G4, telomeric G4 DNAs, or calf thymus dsDNA were gradually added to the complex solution. For each addition of the DNA, the sample was equilibrated at least 2 min. The fluorescence spectrum was recorded between 570 and 600 nm with an excitation wavelength of 555 nm, 10 nm bandwidths, 100 nm/min of scan speed, and 1 s of response time. The fluorescence intensities at the emission maximum (Δmax=580 nm) were plotted for figures. The competitor binding affinities (K, values) were calculated by
(§3) using data from 20 nM compound. The C50 value was the concentration of the unlabeled competing DNA that recovers the fluorescence of the labelled DNA by 50%. [L] represents the ligand concentration that is a constant value of 20 nM. Kd,app values were obtained by fluorescence-based binding assay.

MycPu28 = test: Competition fluorescence displacement, competitor MycPu28; design: species or system human; conditions: competitor binding affinity; 20 nM 3′-TAMRA MycPu22, 20 nM compound, 20° C., pH 7, 100 mM K+
Method: as §1, §2, §3

[1] = biological target: K-RasG4 (parallel K-Ras promoter G4); test: Competition fluorescence displacement, competitor K-Ras G4; conditions: competitor binding affinity; 20 nM 3′-TAMRA MycPu22, 20 nM compound, 20° C., pH 7, 100 mM K+
Method: as §1, §2, §3

Telomeric G4 (hybrid) = test: Competition fluorescence displacement, competitor telomeric G4; type: binding; conditions: for binding selectivity for parallel G4s over hybrid G4: competition fluorescence displacement, 1 and 5 equivalents; for Ki: competitor binding affinity, 20 nM 3′-TAMRA MycPu22, 20 nM compound, 20° C., pH 7, 100 mM K+
Method: as §1, §2, §3

calf thymus dsDNA = test: Competition fluorescence displacement, competitor dsDNA; type: binding; conditions: for binding selectivity for DNA G4s over dsDNA: competition fluorescence displacement, 1 and 5 equivalents; for Ki: competitor binding affinity, Ki refers to the base-pair concentration, 20 nM compound, 20° C., pH 7, 100 mM K+
Method: as §1, §2, §3

SMILES	binding to MycG4 by 1H NMR titration (MycG4 (MycPu22 DNA))	Ki (MycPu22) [nM]	Ki (MycPu28) [nM]	Ki [1] [nM]	binding selectivity for parallel G4s over hybrid G4 (Telomeric G4 (hybrid))	Ki (Telomeric G4 (hybrid)) [nM]	binding selectivity for DNA G4s over dsDNA (calf thymus dsDNA)	Ki (calf thymus dsDNA) [nM]
COc1cnc2c(c1)C(=O)c1c-2n(CCCNC2=NCCS2)c(=O)c2cc([N+](=O)[O-])ccc12 [Compound 12]	less well-defined MycG4 complexes	7	7	7	much less selectivity	14	remarkable selectivity	3620
O=C1c2ccccc2-c2c1c1ccccc1c(=O)n2CCCNCCO [Compound 13]	more specific binding to MycG4	26	19	23	selectivity for parallel G4s over hybrid G4	146	much less selectivity against dsDNA	2140
CNCCCn1c2c(c3ccc(F)cc3c1=O)C(=O)c1cc(OC)cnc1-2 [Compound 6]	more specific binding to MycG4	40	33	32	marked selectivity	286	remarkable selectivity	~12000

The remaining compounds from weak to strong by Ki (MycPu22), led by results:

binding to MycG4 by 1H NMR titration (MycG4 (MycPu22 DNA))	Ki (MycPu22) [nM]	Ki (MycPu28) [nM]	Ki [1] [nM]	binding selectivity for parallel G4s over hybrid G4 (Telomeric G4 (hybrid))	Ki (Telomeric G4 (hybrid)) [nM]	SMILES	binding selectivity for DNA G4s over dsDNA (calf thymus dsDNA)	Ki (calf thymus dsDNA) [nM]
more specific binding to MycG4	16	18	21	marked selectivity	164	COc1cnc2c(c1)C(=O)c1c-2n(CCCNC(C)C)c(=O)c2cc(F)ccc12 [Compound 5]	remarkable selectivity	~11000
less well-defined MycG4 complexes	12	11	11	much less selectivity	28	COc1cnc2c(c1)C(=O)c1c-2n(CCCN2CCCC2)c(=O)c2cc([N+](=O)[O-])ccc12 [Compound 9]	remarkable selectivity	5170
